Tested on: CD8+ T cells in CD4-depleted PBMC
Assay: Precursor frequency analysis of CD8+ T cells recognizing MBP-derived peptides (split-well method, [3H]-thymidine proliferation)
Type: cell-based, human
Settings: MS patients vs healthy controls; p<0.05 for MBP111-119 and MBP87-95

Row | Substance | frequency of peptide-recognizing CD8+ T cells in MS patients compared with control subjects
1 | SLSRFSWGA [SEQ ID NO. 2, Fragment of human MBP, amino acids 111-119] | considerably higher
2 | immunodominant epitope (residues 830-838) of tetanus toxoid: synthetic peptide corresponding to an immunodominant peptide of tetanus toxoid (residues 830-838), used as control (QYIKANSKF; UniProt P04958 830-838, looked up, fragment) [reference compound] | did not differ significantly
3 | MBPVVHFFKNIV [SEQ ID NO. 1, Fragment of human MBP, amino acids 87-95] | considerably higher

— US20100183546A1, “Method for Increasing CD8+ Cytotoxic T Cell Responses and for Treating Multiple Sclerosis” (Baylor College of Medicine, priority 2003, published 2010)
